Laboratory results taken from paper PMC6162336, “An Afferent Neuropeptide System Transmits Mechanosensory Signals Triggering Sensitization and Arousal in C. elegans” (Neuron, 2018).
Values belong to the compound of their own block, whether it stands above or below them. Where no end group is shown, it is not given here.

Columns and labels:
ASH::ChR2 animals = assay: Cross-modal sensitization assay (reversal response to optogenetic ASH activation); assay type: in vivo, C. elegans
Source text: Channelrhodopsin experiments: 1-2 day old well-fed adult animals were used for all experiments. For LED stimulation: for experiments with flp-20 mutant animals, a custom setup was used as described in ([Ezcurra et al., 2011]); for experiments on frpr-3 mutant animals and RNAi transgenic lines, a custom setup was used as in ([Ardiel et al., 2016], [Ardiel et al., 2017]) using 480 nm Luxeon star LEDs with 450 uw/mm^2 power. In contrast to locomotion arousal experiments described above, these experiments used an automated tapper, which produces equivalent speed responses (Figure S1C). […] ATR (R2500 Sigma-Aldrich) was provided to animals by feeding as described in ([Rabinowitch et al., 2016b]). > 20 animals were placed onto the seeded plate and at least 4 plates were assayed per condition and genotype on multiple days for all cross-modal sensitization behavioral experiments. Video recording was started 5 min after the plate was placed on the stage. For animals exposed to a pre-arousing tap, 1 tap was used, followed by a 20 s interval and then a 2 s blue light stimulation. […]
To test if 2-nonanone exposure could sensitize ASH-dependent reversals, 200 μL undiluted nonanone was spread with a pipette around the rim inside the lid of Petri dish. […] For all experiments, reversal length was analyzed using MATLAB ([Ardiel et al., 2017], [Ezcurra et al., 2011], [Ramot et al., 2008]).

[1] = system: C. elegans wild-type animals; assay: Locomotion assay after odorant stimuli; assay type: in vivo; conditions: benzaldehyde 1% in ethanol, 2-nonanone undiluted, dropped in front of the nose
ASH neuron = assay: Nonanone sensitization assay, ASH calcium imaging in microfluidics chip; assay type: in vivo, C. elegans; conditions: 5 s nonanone pulse (100%) then 0.5 M glycerol; GCaMP3; n = 9-10
Description: In microfluidics chip: Calcium imaging on 1-2 day old adult animals was performed in custom-designed microfluidic devices as described (using mechanical stimulus module from [Cho et al., 2018], [Cho et al., 2017]). These experiments were performed on a Leica DMIRB inverted microscope using a 40x air objective (N.A. 0.75). Video sequences were captured using a Hamamatsu EM-CCD camera with 100 ms exposure time. Simultaneous dual color imaging was performed using a DV2 beamsplitter (Photometrics) containing a GFP(520 nm)/RFP(605 nm) filter set. Excitation light for fluorescent imaging was delivered through a projector system ([Stirman et al., 2011]). […] Videos were recorded for 40-90 s following stimulus delivery. For analysis of calcium transients, fluorescence intensities for each frame were extracted using a custom MATLAB script ([Cho et al., 2018], [Cho et al., 2017]). […] GCaMP3 and RFP intensities were measured as the mean pixel intensity of the 100 brightest pixels in a circular region of interest (ROI) with a 10 pixel radius. […] All quantification is provided as the ratio of GCaMP3 to tagRFP fluorescence intensity. […]

FRPR-3 = target: T1, FRPR-3 (Caenorhabditis elegans, UniProt Q66GU0); assay: In vitro GPCR activation assay (aequorin calcium bioluminescence, CHO/mtAEQ/Gα16 cells); assay type: cell-based, C. elegans; conditions: mammalian cells expressing aequorin and promiscuous Gα16
T1 sequence (Q66GU0 1-360): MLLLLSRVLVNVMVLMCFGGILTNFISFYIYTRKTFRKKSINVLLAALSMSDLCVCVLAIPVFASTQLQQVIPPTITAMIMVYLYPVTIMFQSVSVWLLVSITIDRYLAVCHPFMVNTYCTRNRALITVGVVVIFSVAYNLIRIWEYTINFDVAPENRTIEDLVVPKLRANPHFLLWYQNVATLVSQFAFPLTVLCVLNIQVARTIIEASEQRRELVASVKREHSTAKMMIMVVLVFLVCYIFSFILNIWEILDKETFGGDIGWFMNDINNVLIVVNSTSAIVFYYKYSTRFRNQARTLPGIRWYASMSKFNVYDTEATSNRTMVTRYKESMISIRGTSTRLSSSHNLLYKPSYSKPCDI
Description: Cell-based activation assays were performed as described ([Beets et al., 2012]). FRPR-3/C26F1.6 cDNA was cloned into the pcDNA3.1(+) TOPO expression vector (Thermo Fisher Scientific). Receptor activation was studied in Chinese hamster ovary cells (CHO) stably expressing apo-aequorin (mtAEQ) targeted to the mitochondria as well as the human Gα16 subunit. The CHO-K1 cell line (PerkinElmer, ES-000-A2) was used for receptor activation assays. CHO/mtAEQ/Gα16 cells were transiently transfected with the FRPR-3 cDNA construct or the empty pcDNA3.1(+) vector using the Lipofectamine transfection reagent (Thermo Fisher Scientific). Cells expressing the receptor were shifted to 28°C 1 day later, and collected 2 days post-transfection in BSA medium (DMEM/HAM’s F12 with 15 mM HEPES, without phenol red, 0.1% BSA) loaded with 5 μM coelenterazine h (Thermo Fisher Scientific) for 4 h to reconstitute the holo-enzyme aequorin. Cells (25,000 cells/well) were exposed to synthetic peptides in BSA medium, and aequorin bioluminescence was recorded for 30 s on a MicroBeta LumiJet luminometer (PerkinElmer, Waltham Massachusetts) in quadruplicate. For dose-response evaluations, after 30 s of ligand-stimulated calcium measurements, Triton X-100 (0.1%) was added to the well to obtain a measure of the maximum cell Ca^2+ response. BSA medium without peptides was used as a negative control and 1 μM ATP was used to check the functional response of the cells. Cells transfected with the empty vector were used as a negative control (not shown). EC50 values were calculated from dose-response curves, constructed using a nonlinear regression analysis, with sigmoidal dose-response equation (Prism 6.0).

Compound: O=Cc1ccccc1 [benzaldehyde]
Effect of odorant presence on tap-evoked enhancement of ASH responses (ASH::ChR2 animals; 1% benzaldehyde in ethanol on lid, tap, 20 s wait, blue light 2 s, n>15): did not prevent enhancement of ASH responses by tap

Compound: CCCCCCCC(C)=O [nonanone, 2-nonanone]
Enhancement of behavioral (reversal) response to optogenetic ASH activation by prior odorant exposure (ASH::ChR2 animals; 200 μL undiluted nonanone on lid, blue light 40 s later, n > 7): nor did it enhance behavioral responses to optogenetic activation of ASH
Increase in locomotion speed after stimulus [1]: can evoke locomotor arousal
Enhancement of ASH calcium responses to glycerol by prior odorant exposure (ASH neuron): did not significantly enhance ASH responses to glycerol

Compound: AVFRM-NH2 [AVFRMa]
EC50 values for activation of FRPR-3 (in words) (FRPR-3): low nanomolar range

Now from value to compound:

EC50 values for activation of FRPR-3 (in words) (FRPR-3): low nanomolar range
Compound: AMMRF-NH2 [AMMRFa]

EC50 values for activation of FRPR-3 (in words) (FRPR-3): low nanomolar range
Compound: SVFRL-NH2 [SVFRLa]
